# “Also recorded” adds a separate entry of the source.
# Tests used:
# human ES cells = assay: RT-PCR gene expression at the different culture steps; assay type: cell-based
# Procedure: RT-PCR—total RNA was isolated from cultures at different culture steps using Tri-Reagent (Molecular Research Center, Cincinnati, Ohio) and RT-PCR was carried out by standard technology as previously described (Slutsky et al., 2003). Expression was checked for the following genes, as described in table 2 below, including the expression of the control gene G3PDH. Also provided in the table are primer sequences used for each gene. For G3PDH, primers from Clontech (Palo Alto, Calif., catalog #9805-1) were used.
# shiverer brain slices = assay: Ex vivo transplantation of human ES-NSc on shiverer brain slices (organotypic cultures), MBP staining and electron microscopy; assay type: cell-based, mouse
# Procedure: Immunostaining—Cells were fixed in 12 or 24-well tissue culture plastic plates with 4% paraformaldehyde (PFA), washed with PBS, and kept at 4° C. before staining. Non-specific staining was blocked with normal goat serum (5% w/v in PBS) for 30 min at RT. Thereafter primary mouse monoclonal (mMc) antibodies, diluted in 1% goat serum, were administered. Antibodies used were: anti PDGFR (mMc IgG1, Santa Cruz, 1:500), O4 (mMc IgM, R&D Systems, 1:1000), O1 (mMc IgM, received from Dr Sheila Harroch, Pasteur Institute, Paris), anti tubulin-βIII (mMc IgG1, Cowance, 1:1000), and antibody 1281 (human nuclei antigen HNA, Chemicon). Following overnight exposure to the appropriate antibody (4° C.), biotinylated goat anti-mouse IgG1 (Southern Biotech, 1:50) was added for 30 minutes, followed by Cy3-tagged streptavidine (ABC laboratories, 1:2000). […] Staining for MBP was with rat monoclonal anti MBP (ab7349, AbCam, 1/500), and Cy3-conjugated Affipure goat anti rat IgG (Jackson laboratories, 1:500). […] An Olympus IX-70 FLA microscope with a DVC-1310C digital camera (DVC, Austin, Tex.) was used and images were processed with Photoshop and analyzed with Image-ProPlus software (Media Cybernetics, Silver Spring, Md.), in order to measure Integrated Optic Density (IOD) of color-specific pixels and MBP fiber length. […]
# Shiverer mice = assay: Transplantation of huES-NSc into brain of shiverer mice, MBP-stained fibers; assay type: in vivo, mouse; details: FIG. 4e
# Source text: Animal model—Shiverer mice have an extensive deletion in the MBP gene (Roach et al., 1985) and in a homozygous shi−/− animal there is no MBP immunoreactivity in the CNS. The appearance of fibers showing immunostaining for MBP following transplantation of oligodendrocyte precursors therefore indicates, that the transplanted cells have the capacity to myelinate endogenous neurons (Lachapelle et al., 1983).
# Transplantation of huES-NSc in Shiverer mice—For transplantation, ES cell-derived dissociated neuroglial sphere cells (huEs-NSc) were prepared as described in Example 3. The culture steps from step T to step D3 that were followed, are outlined in Table 1 condition 3. in Example 1. However, Step D3 was for 9 days, with and without 50 ng/ml noggin. Growth factors were then removed for one day, during which 1 μg/ml laminin, and 50 μg/m Vit C were added to the N2/B27 medium (step F2, as described in Example 1). The culture was thereafter subjected to the short trypsin treatment (see Example 1) and the cells were injected intraventricularly to homozygous shiverer mice. One day old shi/shi pups were anesthetized by brief hypothermia and received an injection of 10^5 cells in 2 μl, over a period of 3 minutes, into the brain third ventricule, using a Hamilton 10 μl syringe. The pups were then warmed and returned to their mothers. […]
# [1] = tested on: human ES cell-derived oligodendrocytes; assay: Number of MBP+ oligodendrocytes by immunostaining; assay type: cell-based; details: step F2, 10 days without GF, noggin vs without noggin; FIG. 2g
# Procedure: (§1) 6. Steps F1,2: Terminal differentiation on matrigel—In step F1 (3 days), the medium was changed to ITTSPP/B27 containing EGF 5 ng/ml and bFGF 5 ng/ml, together with mouse laminin 1 μg/ml, and Vit C (50 μg/ml; Sigma-Aldrich, St. Lewis, Mo.). Some of the wells were treated with noggin (50 ng/ml Noggin-Fc chimera; R&D systems, Minneapolis, Minn.), 2 days after seeding, and noggin was continued thereafter. In step F2, cells were cultured 6 or 10 days in the same medium without growth factor, but with or without noggin. The medium was changed every two to four days.
# Immunostaining—Cells were fixed in 12 or 24-well tissue culture plastic plates with 4% paraformaldehyde (PFA), washed with PBS, and kept at 4° C. before staining. Non-specific staining was blocked with normal goat serum (5% w/v in PBS) for 30 min at RT. Thereafter primary mouse monoclonal (mMc) antibodies, diluted in 1% goat serum, were administered. […] An Olympus IX-70 FLA microscope with a DVC-1310C digital camera (DVC, Austin, Tex.) was used and images were processed with Photoshop and analyzed with Image-ProPlus software (Media Cybernetics, Silver Spring, Md.), in order to measure Integrated Optic Density (IOD) of color-specific pixels and MBP fiber length. […]
# [2] = tested on: human ES cell-derived neuroglial sphere cells; assay: Count of O4+ cells with oligodendrocyte branching morphology per field after terminal differentiation; assay type: cell-based
# Procedure: Differentiation of ES cells into oligodendrocytes—The following steps were taken for initiating ES cell differentiation:
# 1. Step T: Transition step—Collagenase detached huESC colonies pooled from six 6-well plates, into a 15 ml tube supplemented with ES1 medium, were let to sediment by gravity for about 30 minutes in the incubator (37° C.). Colonies were then washed once in ES1 medium and then transferred to 12×6 cm tissue culture plates in 5 ml transition medium (T-medium) consisting of 50% (v/v) ES1 medium, and 50% (v/v) of ITTSPP/B27 medium. Growth factors (GF), recombinant human EGF (20 ng/ml, R&D Systems, Minneapolis, Minn.) and recombinant human bFGF (4 ng/ml, Biotest, Dreieich, Germany) were added to the transition medium. Thereafter (1 d), some cells adhered but the bulk of huESC colonies and aggregates remained in suspension and were transferred to 12 bacterial (non-adherent) plates in the same transition medium and cultured for 1 day. Then, 10 μM retinoic acid (RA, Sigma-Aldrich, St. Lewis, Mo.) was added to the T-medium and cells were cultured for an additional day.
# 2. Step R: Retinoic acid treatment—The medium was switched to ITTSPP/B27 containing 20 ng/ml of EGF and 10 μM RA. Medium was changed every day for 7 days, and colonies were concentrated by gravity, without centrifugation.
# 3. Step S: Suspension culture—During this step, which allows for ripening of neurospheres (NS), the aggregates were cultured in ITTSPP/B27 medium supplemented with 20 ng/ml EGF, for 18 days, changing medium every two days. The ITTSPP/B27 medium was, or was not supplemented with 50 ng/ml Noggin-Fc chimera (R&D systems, Minneapolis, Minn.), in order to examine the effect of noggin.
# 4. Steps M1,2: Adherence to matrigel-coated plates—Spheres or aggregates from one original 6-well plate were distributed to another 6-well plate which had been coated for 1.5 hours at room temperature with matrigel (Matrigel low growth factor concentration; BD Biosciences, Clontech, Palo Alto, Calif., diluted 1:30 in DMEM/F12 Pen-Strep). After one day, the unbound aggregates were discarded and fresh ITTSPP/B27 medium, supplemented with 20 ng/ml EGF, was added. Medium was changed every 3-4 days.
# 5. Passage with trypsin—Following 1-2 weeks, aggregates were detached and partially dissociated by a short treatment with trypsin 0.05% (2-3 min, 37° C.; Biological industries, Beit Haemek, Israel, diluted in PBS, —Ca and —Mg). Trypsin was rapidly neutralized by addition of 4 volumes of BSA (2 mg/ml; Sigma for Tissue culture) in ITTSPP/B27, and centrifugation at (200 rpm, 10 min), followed by another wash with BSA. This treatment dissociates the aggregates to small clusters that are seeded again onto matrigel-coated plates (at dilution 1:3), in ITTSPP/B27, 20 ng/ml EGF, for another 1-2 weeks (step M2).
# as §1
# Immunostaining—Cells were fixed in 12 or 24-well tissue culture plastic plates with 4% paraformaldehyde (PFA), washed with PBS, and kept at 4° C. before staining. Non-specific staining was blocked with normal goat serum (5% w/v in PBS) for 30 min at RT. Thereafter primary mouse monoclonal (mMc) antibodies, diluted in 1% goat serum, were administered. Antibodies used were: anti PDGFR (mMc IgG1, Santa Cruz, 1:500), O4 (mMc IgM, R&D Systems, 1:1000), O1 (mMc IgM, received from Dr Sheila Harroch, Pasteur Institute, Paris), anti tubulin-βIII (mMc IgG1, Cowance, 1:1000), and antibody 1281 (human nuclei antigen HNA, Chemicon). […]
# [3] = Dissociated cells, Passage 2, listed as noggin
# [4] = On Matrigel, noggin added at Step S
# [5] = On Matrigel, noggin added at Steps F and S
substance,measurement,setting,value
Noggin,expression of Oct4 and Rex1,human ES cells; after step S with noggin,down-regulated
same,expression of myelin proteolipid protein (PLP),human ES cells; after step S with noggin,increasing
same,expression of PDGF-Rα,"human ES cells; after step S with noggin, FIG. 1a lane 3",decreased
same,expression of Nkx2.2 and Sox10,"human ES cells; after step S, noggin 50 ng/ml, FIG. 1a lane 3",seen only when noggin was added
same,myelin by electron microscopy,"shiverer brain slices; brain tissue transplanted with noggin-treated huES-NS cells, FIG. 5e,f","compacted myelin sheaths, with major dense lines, were formed"
same,overall myelinating capacity (extent of MBP staining and mean length of MBP+ fibers),"shiverer brain slices; noggin-treated vs untreated huES-NS cells, two weeks after implantation, FIG. 5g",markedly enhanced
same,number of MBP fibers/field,Shiverer mice; cells cultured with vs without noggin,increased
same,increase in the number of MBP fibers,"Shiverer mice; huES-NSc treated 9 days with 50 ng/ml noggin at step D3, injected into third ventricule, four weeks",3.5-4 fold
same,number of MBP+ oligodendrocytes,[1],very significant stimulation; also recorded: strong stimulation
same,oligodendrocytes formed in the differentiation step,"[2]; Dissociated cells, passage 2, noggin added at the early step S",1.77±1.2
same,"Fold (with vs without noggin), number of oligodendrocytes per field","[2]; Dissociated cells, Passage 2",9.1
same,Number of oligodendrocytes per field,"[2]; Dissociated cells, Passage 2",5.20 ± 1.7
same,O4+ cells with ramified oligodendrocyte shape as share of total cells,"[2]; Dissociated cells, Passage 2",about 5%
same,total O4+ cells as share of total cells,"[2]; Dissociated cells, Passage 2",about 15%
same,"Fold (with vs without noggin), number of oligodendrocytes per field",[2]; [3],9
same,Number of oligodendrocytes per field,[2]; [3],5.20±1.7
same,"Fold (with vs without noggin), number of oligodendrocytes per field","[2]; Dissociated cells, Passage 3",7.1
same,Number of oligodendrocytes per field,"[2]; Dissociated cells, Passage 3",10.14 ± 5.2
same,"Fold (with vs without noggin), number of oligodendrocytes per field","[2]; Dissociated cells, Passage 4",6.0
same,Number of oligodendrocytes per field,"[2]; Dissociated cells, Passage 4",12.05 ± 3.6
same,Number of oligodendrocytes per field,"[2]; On Matrigel, noggin 50 ng/ml added at Step F, 6 days without growth factors, fields of 0.4 mm^2",5.76 ± 4.2
same,"Fold (with vs without noggin), number of oligodendrocytes per field","[2]; On Matrigel, noggin added at Step F",8.7
same,"Fold (with vs without noggin), number of oligodendrocytes per field",[2]; [4],2.2
same,Number of oligodendrocytes per field,[2]; [4],1.50 ± 1.4
same,"Fold (with vs without noggin), number of oligodendrocytes per field",[2]; [5],4.4
same,Number of oligodendrocytes per field,[2]; [5],2.95 ± 1.7
same,proportion of oligodendrocytes of the total cells in the culture,"[2]; after sub-passages (passages 3 and 4), noggin during steps D and F",43%
same,number of well-developed oligodendrocytes displaying ramified branches,"[2]; on matrigel, 10 days without growth factors, FIGS. 1g-h",strong effect
bFGF: recombinant human basic fibroblast growth factor,induction of Nkx2.2,"human ES cells; protocol based on bFGF treatment with neither RA nor noggin, FIG. 1b",failed to induce Nkx2.2
same,effect of addition at step S (ripening of neurospheres),[2]; bFGF 20 ng/ml at step S,not found to be helpful
same,oligodendrocytes formed in the final differentiation step F,"[2]; bFGF alternating with EGF during step S (without noggin), step F with noggin",0.66±0.5
same,expansion of dissociated precursor cells,[2]; combination of bFGF and EGF at step D2,better than EGF alone
